Consider 59 compounds from the Kinase Knowledgebase extract (Sharma et al. 2016).

One assay has as its target PIK3CG (human) (UniProt P48736). Kind of assay: Assessment of PI3KCG Kinase Activity.
The next assay addresses PIK3CD (Human) (UniProt O00329). Kind of assay: Assessment of PI3KCD Kinase Activity.

Chain of PIK3CG (human) (P48736 whole entry, looked up): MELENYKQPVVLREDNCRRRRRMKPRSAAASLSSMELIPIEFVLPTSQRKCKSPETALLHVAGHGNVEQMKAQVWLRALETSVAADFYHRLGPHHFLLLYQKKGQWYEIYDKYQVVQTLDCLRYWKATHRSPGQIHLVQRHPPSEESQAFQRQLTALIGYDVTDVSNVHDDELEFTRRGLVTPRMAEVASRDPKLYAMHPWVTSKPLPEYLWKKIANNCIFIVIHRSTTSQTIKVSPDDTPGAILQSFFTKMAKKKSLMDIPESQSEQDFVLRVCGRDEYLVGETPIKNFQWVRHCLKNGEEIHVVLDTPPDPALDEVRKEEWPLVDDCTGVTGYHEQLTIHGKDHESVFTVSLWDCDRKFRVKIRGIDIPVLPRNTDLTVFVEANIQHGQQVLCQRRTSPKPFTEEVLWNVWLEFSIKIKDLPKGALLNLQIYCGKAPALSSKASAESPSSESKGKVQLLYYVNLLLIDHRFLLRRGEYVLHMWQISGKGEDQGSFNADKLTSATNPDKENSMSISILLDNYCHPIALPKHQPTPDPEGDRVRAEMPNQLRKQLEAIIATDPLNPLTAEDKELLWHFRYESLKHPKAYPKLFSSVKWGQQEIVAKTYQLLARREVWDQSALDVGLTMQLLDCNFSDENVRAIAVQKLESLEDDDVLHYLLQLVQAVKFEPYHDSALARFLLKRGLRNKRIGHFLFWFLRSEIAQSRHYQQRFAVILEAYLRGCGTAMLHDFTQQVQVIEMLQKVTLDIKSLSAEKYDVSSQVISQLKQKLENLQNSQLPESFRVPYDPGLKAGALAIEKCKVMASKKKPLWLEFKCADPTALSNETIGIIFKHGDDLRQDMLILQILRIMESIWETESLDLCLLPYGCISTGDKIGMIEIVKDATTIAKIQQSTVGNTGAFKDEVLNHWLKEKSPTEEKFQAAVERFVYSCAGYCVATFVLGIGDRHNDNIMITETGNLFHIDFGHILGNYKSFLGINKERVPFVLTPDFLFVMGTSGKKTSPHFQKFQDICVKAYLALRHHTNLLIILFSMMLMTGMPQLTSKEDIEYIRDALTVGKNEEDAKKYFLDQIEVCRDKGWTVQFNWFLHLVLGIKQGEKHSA
Chain of PIK3CD (Human) (O00329 whole entry, looked up): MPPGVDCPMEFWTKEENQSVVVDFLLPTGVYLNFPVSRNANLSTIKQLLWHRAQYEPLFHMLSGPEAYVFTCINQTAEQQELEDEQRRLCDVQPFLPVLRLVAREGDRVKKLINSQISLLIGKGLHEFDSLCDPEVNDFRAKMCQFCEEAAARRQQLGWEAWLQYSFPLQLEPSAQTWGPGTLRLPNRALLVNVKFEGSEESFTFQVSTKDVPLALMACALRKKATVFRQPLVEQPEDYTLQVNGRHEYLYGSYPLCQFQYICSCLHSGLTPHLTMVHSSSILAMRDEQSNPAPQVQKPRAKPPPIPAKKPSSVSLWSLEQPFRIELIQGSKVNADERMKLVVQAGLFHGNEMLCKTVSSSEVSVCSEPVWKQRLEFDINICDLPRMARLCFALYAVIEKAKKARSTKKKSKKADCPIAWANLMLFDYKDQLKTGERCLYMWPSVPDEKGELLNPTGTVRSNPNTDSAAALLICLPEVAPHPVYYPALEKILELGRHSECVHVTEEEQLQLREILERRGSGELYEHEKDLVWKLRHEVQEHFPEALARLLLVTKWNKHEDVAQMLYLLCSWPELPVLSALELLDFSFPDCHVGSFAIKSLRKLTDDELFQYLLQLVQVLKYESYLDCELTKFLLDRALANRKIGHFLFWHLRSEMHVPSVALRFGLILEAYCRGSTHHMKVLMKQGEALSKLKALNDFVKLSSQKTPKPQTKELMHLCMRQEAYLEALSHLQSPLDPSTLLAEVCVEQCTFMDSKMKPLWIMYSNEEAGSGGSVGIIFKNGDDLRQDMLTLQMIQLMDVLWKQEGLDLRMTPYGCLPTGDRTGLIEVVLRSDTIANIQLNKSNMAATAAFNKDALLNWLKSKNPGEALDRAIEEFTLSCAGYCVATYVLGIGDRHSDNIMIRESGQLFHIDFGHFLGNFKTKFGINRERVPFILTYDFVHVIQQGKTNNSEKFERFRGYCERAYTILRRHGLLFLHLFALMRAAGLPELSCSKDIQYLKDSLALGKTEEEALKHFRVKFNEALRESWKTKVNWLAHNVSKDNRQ

`Cc1ccccc1-n1c(Cn2nc(-c3cc(O)cc(F)c3)c3c(N)ncnc32)nc2scc(C)c2c1=O`: the IC50 against PIK3CG (human) and at PIK3CD (Human) was less than 100 nM each time.
For `Cc1cccnc1-n1c(Cn2nc(-c3ccc(F)c(O)c3)c3c(N)ncnc32)cc2cccc(C)c2c1=O`, the IC50 at PIK3CG (human) and against PIK3CD (Human) was less than 100 nM each time.
`Cc1ccccc1-n1c(Cn2nc(-c3cccc(O)c3)c3c(N)ncnc32)nc2scc(C)c2c1=O`: the IC50 on PIK3CG (human) and at PIK3CD (Human) was less than 100 nM throughout.
Regarding `CCc1ccccc1-n1c(Cn2nc(-c3cn[nH]c3)c3c(N)ncnc32)cc2cccc(C)c2c1=O`, the IC50 against PIK3CG (human) and against PIK3CD (Human) was less than 100 nM in each case.
With `Cc1ccccc1-n1c(Cn2nc(-c3ccc(F)c(O)c3)c3c(N)ncnc32)nc2scc(C)c2c1=O`, the IC50 against PIK3CG (human) and against PIK3CD (Human) was less than 100 nM throughout.
Regarding `Cc1ccccc1-n1c(Cn2nc(-c3cccc(O)c3)c3c(N)ncnc32)cc2cccc(C)c2c1=O`, the IC50 at PIK3CG (human) and at PIK3CD (Human) was less than 100 nM in each case.
As for `COc1ccccc1-n1c(Cn2nc(-c3cc(O)cc(F)c3)c3c(N)ncnc32)cc2cccc(C)c2c1=O`, the IC50 against PIK3CG (human) and against PIK3CD (Human) was less than 100 nM throughout.
As for `Cc1ccccc1-n1c(Cn2nc(-c3ccc4cc[nH]c4c3)c3c(N)ncnc32)nc2scc(C)c2c1=O`, the IC50 at PIK3CG (human) and on PIK3CD (Human) was less than 100 nM in each case.
On to `Cc1ccccc1-n1c(Cn2nc(C=CC(N)=O)c3c(N)ncnc32)cc2cccc(C)c2c1=O`, for which the IC50 against PIK3CG (human) and at PIK3CD (Human) was less than 100 nM in each case.
`Cc1csc2nc(Cn3nc(-c4cccc(O)c4)c4c(N)ncnc43)n(-c3ccccc3C(F)(F)F)c(=O)c12`: the IC50 against PIK3CG (human) and on PIK3CD (Human) was less than 100 nM throughout.
Regarding `Cc1ccccc1-n1c(Cn2nc(C)c3c(N)ncnc32)nc2scc(C)c2c1=O`, the 50% inhibitory concentration (IC50) against PIK3CG (human) and against PIK3CD (Human) was less than 100 nM throughout.
Consider `Cc1ccccc1-n1c(Cn2nc(C=C3SC(=O)NC3=O)c3c(N)ncnc32)cc2cccc(C)c2c1=O`, for which the half-inhibitory concentration (IC50) against PIK3CG (human) and on PIK3CD (Human) was less than 100 nM in each case.
Regarding `Cc1ccccc1-n1c(Cn2nc(-c3ccc4ncnc(N)c4c3)c3c(N)ncnc32)cc2cccc(C)c2c1=O`, the IC50 at PIK3CG (human) and at PIK3CD (Human) was less than 100 nM throughout.
For `Cc1cccc2cc(Cn3nc(-c4cccc(O)c4)c4c(N)ncnc43)n(C(C)C)c(=O)c12`, the IC50 on PIK3CG (human) and on PIK3CD (Human) was less than 100 nM in each case.
As for `CC(=O)Nc1nc2ccc(-c3nn(Cc4cc5ccccc5c(=O)n4-c4ccccc4C)c4ncnc(N)c34)cc2s1`, the IC50 against PIK3CG (human) and at PIK3CD (Human) was less than 100 nM in each case.
For the compound `Cc1cccc2cc(Cn3nc(-c4cc(O)cc(F)c4)c4c(N)ncnc43)n(C3CCCC3)c(=O)c12`, the concentration for half-maximal inhibition (IC50) on PIK3CG (human) and against PIK3CD (Human) was less than 100 nM each time.
`Cc1cccnc1-n1c(Cn2nc(-c3cc(O)cc(F)c3)c3c(N)ncnc32)cc2cccc(C)c2c1=O`: the IC50 on PIK3CG (human) and at PIK3CD (Human) was less than 100 nM each time.
Turning to `Cc1cccc2cc(Cn3nc(-c4cc(O)cc(F)c4)c4c(N)ncnc43)n(-c3ccccc3O)c(=O)c12`, the IC50 on PIK3CG (human) and at PIK3CD (Human) was less than 100 nM throughout.
Consider `Cc1ccccc1-n1c(Cn2nc(-c3cc(O)cc(F)c3)c3c(N)ncnc32)cc2nccc(C)c2c1=O`, for which the IC50 against PIK3CG (human) and against PIK3CD (Human) was less than 100 nM throughout.
As to `Cc1csc2nc(Cn3nc(-c4cccc(O)c4)c4c(N)ncnc43)n(-c3ccccc3C(C)C)c(=O)c12`, the IC50 at PIK3CG (human) and at PIK3CD (Human) was less than 100 nM throughout.
In the case of `Cc1ccccc1-n1c(Cn2nc(I)c3c(N)ncnc32)cc2cccc(C)c2c1=O`, the IC50 against PIK3CG (human) and against PIK3CD (Human) was less than 100 nM throughout.
Regarding `Cc1ccccc1-n1c(Cn2nc(-c3ccc(F)c(O)c3)c3c(N)ncnc32)cc2cccc(F)c2c1=O`, the IC50 at PIK3CG (human) and at PIK3CD (Human) was less than 100 nM each time.
For the compound `COc1ccccc1-n1c(Cn2nc(-c3cc(O)cc(F)c3)c3c(N)ncnc32)nc2scc(C)c2c1=O`, the IC50 against PIK3CG (human) and on PIK3CD (Human) was less than 100 nM in each case.
Consider `Cc1cccc2cc(Cn3nc(-c4cccc(O)c4)c4c(N)ncnc43)n(-c3ccccc3C(C)C)c(=O)c12`, for which the IC50 against PIK3CG (human) and on PIK3CD (Human) was less than 100 nM throughout.
With `Cc1ccccc1-n1c(Cn2nc(-c3ccc4nc(N)sc4c3)c3c(N)ncnc32)cc2cccc(C)c2c1=O`, the IC50 against PIK3CG (human) and at PIK3CD (Human) was less than 100 nM in each case.
Take `Cc1cccc2cc(Cn3nc(I)c4c(N)ncnc43)n(-c3ccccc3O)c(=O)c12`: the IC50 at PIK3CG (human) and at PIK3CD (Human) was less than 100 nM throughout.
`COc1ccccc1-n1c(Cn2nc(-c3cccc(O)c3)c3c(N)ncnc32)cc2cccc(C)c2c1=O`: the IC50 on PIK3CG (human) and against PIK3CD (Human) was less than 100 nM each time.
Turning to `Cc1cccc2cc(Cn3nc(-c4ccc(F)c(O)c4)c4c(N)ncnc43)n(C(C)C)c(=O)c12`, the IC50 against PIK3CG (human) and at PIK3CD (Human) was less than 100 nM throughout.
As to `Cc1cccc2cc(Cn3nc(-c4cc(O)cc(F)c4)c4c(N)ncnc43)n(-c3ccccc3)c(=O)c12`, the IC50 against PIK3CG (human) and against PIK3CD (Human) was less than 100 nM throughout.
For `Cc1ccccc1-n1c(Cn2nc(Br)c3c(N)ncnc32)cc2cccc(C)c2c1=O`, the concentration for half-maximal inhibition (IC50) at PIK3CG (human) and against PIK3CD (Human) was less than 100 nM each time.
In the case of `Cc1ccccc1-n1c(Cn2nc(-c3ccc4nc(N)ccc4c3)c3c(N)ncnc32)cc2cccc(C)c2c1=O`, the IC50 against PIK3CG (human) and against PIK3CD (Human) was less than 100 nM throughout.
Consider `Cc1ccccc1-n1c(Cn2nc(-c3ccc(Cl)c(O)c3)c3c(N)ncnc32)cc2cccc(C)c2c1=O`, for which the IC50 at PIK3CG (human) and on PIK3CD (Human) was less than 100 nM in each case.
Regarding `CCc1ccccc1-n1c(Cn2nc(-c3cc(O)cc(F)c3)c3c(N)ncnc32)cc2cccc(C)c2c1=O`, the half-inhibitory concentration (IC50) on PIK3CG (human) and against PIK3CD (Human) was less than 100 nM throughout.
Consider `Cc1cccc2cc(Cn3nc(-c4ccc(F)c(O)c4)c4c(N)ncnc43)n(C3CCCC3)c(=O)c12`, for which the IC50 against PIK3CG (human) and on PIK3CD (Human) was less than 100 nM throughout.
Turning to `Cc1cccc2cc(Cn3nc(-c4cc(O)cc(F)c4)c4c(N)ncnc43)n(-c3ccccc3Cl)c(=O)c12`, the IC50 on PIK3CG (human) and on PIK3CD (Human) was less than 100 nM in each case.
With `CC(=O)Nc1nc2ccc(-c3nn(Cc4cc5cccc(C)c5c(=O)n4-c4ccccc4)c4ncnc(N)c34)cc2s1`, the IC50 against PIK3CG (human) and against PIK3CD (Human) was less than 100 nM each time.
Take `Cc1ccccc1-n1c(Cn2nc(-c3ccc(O)c(Cl)c3)c3c(N)ncnc32)cc2cccc(C)c2c1=O`: the IC50 against PIK3CG (human) and against PIK3CD (Human) was less than 100 nM in each case.
`Cc1ccccc1-n1c(C(C)Nc2ncnc3[nH]cnc23)cc2cccc(C)c2c1=O` (stereo not drawn): the IC50 against PIK3CG (human) and against PIK3CD (Human) was less than 100 nM each time.
As to `Cc1ccccc1-n1c(Cn2nc(-c3ccc(F)c(O)c3)c3c(N)ncnc32)cc2cccc(C)c2c1=O`, the IC50 against PIK3CG (human) and against PIK3CD (Human) was less than 100 nM throughout.
On to `CCc1ccccc1-n1c(Cn2nc(-c3cc(O)cc(F)c3)c3c(N)ncnc32)nc2scc(C)c2c1=O`, for which the IC50 against PIK3CG (human) and on PIK3CD (Human) was less than 100 nM in each case.
With `Cc1ccccc1-n1c(Cn2nc(-c3cccc(O)c3)c3c(N)ncnc32)cc2cccc(F)c2c1=O`, the IC50 at PIK3CG (human) and at PIK3CD (Human) was less than 100 nM in each case.
For the compound `Cc1ccccc1-n1c(Cn2nc(C3=CCC4OC(N)=NC4=C3)c3c(N)ncnc32)cc2cccc(C)c2c1=O` (stereo not drawn), the 50% inhibitory concentration (IC50) at PIK3CG (human) and against PIK3CD (Human) was less than 100 nM throughout.
For the compound `Cc1cccc2cc(Cn3nc(C=C4SC(=O)NC4=O)c4c(N)ncnc43)n(-c3ccccc3F)c(=O)c12`, the IC50 at PIK3CG (human) and against PIK3CD (Human) was less than 100 nM throughout.
As for `Cc1csc2nc(Cn3nc(I)c4c(N)ncnc43)n(-c3ccccc3C(C)C)c(=O)c12`, the IC50 against PIK3CG (human) and on PIK3CD (Human) was less than 100 nM each time.
As to `CCc1ccccc1-n1c(Cn2nc(-c3cccc(O)c3)c3c(N)ncnc32)nc2scc(C)c2c1=O`, the half-inhibitory concentration (IC50) at PIK3CG (human) and against PIK3CD (Human) was less than 100 nM throughout.
For `CCc1ccccc1-n1c(Cn2nc(-c3cccc(O)c3)c3c(N)ncnc32)cc2cccc(C)c2c1=O`, the half-inhibitory concentration (IC50) at PIK3CG (human) and against PIK3CD (Human) was less than 100 nM throughout.
For the compound `CCc1ccccc1-n1c(Cn2nc(I)c3c(N)ncnc32)cc2cccc(C)c2c1=O`, the IC50 against PIK3CG (human) and on PIK3CD (Human) was less than 100 nM in each case.
In the case of `Cc1ccccc1-n1c(Cn2nc(-c3cc(O)cc(F)c3)c3c(N)ncnc32)cc2ccccc2c1=O`, the IC50 against PIK3CG (human) and against PIK3CD (Human) was less than 100 nM in each case.
As to `Cc1cccc2cc(Cn3nc(-c4cccc(O)c4)c4c(N)ncnc43)n(-c3ccccc3)c(=O)c12`, the IC50 against PIK3CG (human) and against PIK3CD (Human) was less than 100 nM each time.
For the compound `Cc1ccccc1-n1c(Cn2nc(-c3ccc(O)c(F)c3)c3c(N)ncnc32)cc2cccc(C)c2c1=O`, the IC50 against PIK3CG (human) and at PIK3CD (Human) was less than 100 nM each time.
For `Cc1ccccc1-n1c(Cn2nc(-c3ccc4cc[nH]c4c3)c3c(N)ncnc32)cc2cccc(C)c2c1=O`, the IC50 at PIK3CG (human) and on PIK3CD (Human) was less than 100 nM each time.
Turning to `Cc1ccccc1-n1c(Cn2nc(-c3ccc(Cl)c(O)c3)c3c(N)ncnc32)cc2ccccc2c1=O`, the IC50 at PIK3CG (human) and on PIK3CD (Human) was less than 100 nM throughout.
Consider `Cc1cccc2cc(Cn3nc(-c4cn[nH]c4)c4c(N)ncnc43)n(-c3ccccc3C(C)C)c(=O)c12`, for which the half-inhibitory concentration (IC50) against PIK3CG (human) and against PIK3CD (Human) was less than 100 nM throughout.
Turning to `CC(=O)Nc1nc2ccc(-c3nn(Cc4cc5cccc(C)c5c(=O)n4-c4cccc(F)c4)c4ncnc(N)c34)cc2s1`, the IC50 against PIK3CG (human) and at PIK3CD (Human) was less than 100 nM each time.
Turning to `Cc1cccc2cc(Cn3nc(-c4cccc(O)c4)c4c(N)ncnc43)n(C3CC3)c(=O)c12`, the 50% inhibitory concentration (IC50) against PIK3CG (human) and against PIK3CD (Human) was less than 100 nM throughout.
As to `Cc1cccc2cc(C(C)Nc3ncnc4[nH]cnc34)n(-c3ccccc3F)c(=O)c12` (stereo not drawn), the IC50 on PIK3CG (human) and against PIK3CD (Human) was less than 100 nM throughout.
`Cc1cccc2cc(Cn3nc(I)c4c(N)ncnc43)n(C3CC3)c(=O)c12`: the IC50 at PIK3CG (human) and on PIK3CD (Human) was less than 100 nM in each case.
As for `Cc1cccc2cc(Cn3nc(-c4cc(O)cc(F)c4)c4c(N)ncnc43)n(-c3ccccc3F)c(=O)c12`, the concentration for half-maximal inhibition (IC50) against PIK3CG (human) and at PIK3CD (Human) was less than 100 nM throughout.
In the case of `Cc1cccc2cc(Cn3nc(-c4cccc(O)c4)c4c(N)ncnc43)n(-c3ccccc3Cl)c(=O)c12`, the IC50 against PIK3CG (human) and on PIK3CD (Human) was less than 100 nM in each case.

In general, IC50 refers to the concentration needed to halve the response being measured.
